Measured values: ChEMBL document CHEMBL1139787, “Synthetic tyrosyl gallate derivatives as potent melanin formation inhibitors” (Bioorg Med Chem Lett, 2007)

Experiments:
[1] = DPPH radical scavenging activity after 30 mins; format: functional
[2] = Cytotoxicity againt Melan-a cells by MTT assay; format: cell-based; details: Mus musculus
[3] = Inhibition of melanin formation in Melan-a cells after 5 days; format: functional, cell-based; details: 120 h
[4] = target: Tyrosinase (Mus musculus) (UniProt P11344); experiment: Inhibition of tyrosinase in Melan-a cells
Tyrosinase (Mus musculus), sequence (P11344 whole entry, looked up): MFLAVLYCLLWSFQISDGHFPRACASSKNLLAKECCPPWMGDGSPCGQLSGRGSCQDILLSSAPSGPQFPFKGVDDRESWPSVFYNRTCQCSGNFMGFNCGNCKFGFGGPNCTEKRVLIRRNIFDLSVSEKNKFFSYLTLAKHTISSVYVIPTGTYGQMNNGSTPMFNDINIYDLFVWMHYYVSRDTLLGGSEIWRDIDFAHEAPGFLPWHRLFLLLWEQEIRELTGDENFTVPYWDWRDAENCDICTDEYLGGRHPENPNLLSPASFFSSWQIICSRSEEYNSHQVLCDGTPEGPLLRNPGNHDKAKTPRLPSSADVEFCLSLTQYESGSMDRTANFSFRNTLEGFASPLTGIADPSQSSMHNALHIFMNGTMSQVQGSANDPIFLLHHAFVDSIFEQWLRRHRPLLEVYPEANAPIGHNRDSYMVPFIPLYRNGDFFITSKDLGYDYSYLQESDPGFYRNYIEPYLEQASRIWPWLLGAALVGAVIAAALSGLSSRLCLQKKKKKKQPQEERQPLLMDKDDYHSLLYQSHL

| IC50 [1] [µM] | IC50 [3] [µM] | IC50 [4] [µM] | Compound | IC50 [2] [µM] |
| --- | --- | --- | --- | --- |
| 9.89 | – | – | Cc1c(C)c2c(c(C)c1O)CC[C@@](C)(CCCC(C)CCCC(C)CCCC(C)C)O2 (single isomer, unassigned) [ALPHA-TOCOPHEROL] | – |
| – | 118 | – | OC[C@H]1O[C@@H](Oc2ccc(O)cc2)[C@H](O)[C@@H](O)[C@@H]1O [ARBUTIN] | > 1500 |

More lines, now with the values behind:

| Compound | IC50 [1] [µM] | IC50 [3] [µM] | IC50 [4] [µM] | IC50 [2] [µM] |
| --- | --- | --- | --- | --- |
| O=C(OCCc1ccccc1O)c1cc(O)c(O)c(O)c1 | 8.31 | 13.7 | 14.5 | > 50 |
| O=C(OCCc1cccc(O)c1)c1cc(O)c(O)c(O)c1 | 7.78 | 8.94 | 15.2 | > 50 |
| O=C(OCCc1ccc(O)cc1)c1cc(O)c(O)c(O)c1 | 7.52 | – | 4.93 | > 10 |
| O=C1O[C@H]([C@@H](O)CO)C(O)=C1O [ASCORBIC ACID] | 13.6 | – | – | – |
